From patent publication US10894784B2, “Heteroarylbenzimidazole compounds” (BAYER PHARMA AKTIENGESELLSCHAFT, priority 2015, dated 2021)
Like-named read-outs stand apart in the source and are kept apart here.

Molecular target: TBK1 (Homo sapiens (Human), UniProt Q9UHD2)
Assay: TBK1 low ATP kinase assay (in vitro assay 1)
Assay type: biochemical
[1] = in vitro assay 1, read-out: TBK1 low ATP kinase assay IC50

Chain of TBK1 (Q9UHD2 whole entry): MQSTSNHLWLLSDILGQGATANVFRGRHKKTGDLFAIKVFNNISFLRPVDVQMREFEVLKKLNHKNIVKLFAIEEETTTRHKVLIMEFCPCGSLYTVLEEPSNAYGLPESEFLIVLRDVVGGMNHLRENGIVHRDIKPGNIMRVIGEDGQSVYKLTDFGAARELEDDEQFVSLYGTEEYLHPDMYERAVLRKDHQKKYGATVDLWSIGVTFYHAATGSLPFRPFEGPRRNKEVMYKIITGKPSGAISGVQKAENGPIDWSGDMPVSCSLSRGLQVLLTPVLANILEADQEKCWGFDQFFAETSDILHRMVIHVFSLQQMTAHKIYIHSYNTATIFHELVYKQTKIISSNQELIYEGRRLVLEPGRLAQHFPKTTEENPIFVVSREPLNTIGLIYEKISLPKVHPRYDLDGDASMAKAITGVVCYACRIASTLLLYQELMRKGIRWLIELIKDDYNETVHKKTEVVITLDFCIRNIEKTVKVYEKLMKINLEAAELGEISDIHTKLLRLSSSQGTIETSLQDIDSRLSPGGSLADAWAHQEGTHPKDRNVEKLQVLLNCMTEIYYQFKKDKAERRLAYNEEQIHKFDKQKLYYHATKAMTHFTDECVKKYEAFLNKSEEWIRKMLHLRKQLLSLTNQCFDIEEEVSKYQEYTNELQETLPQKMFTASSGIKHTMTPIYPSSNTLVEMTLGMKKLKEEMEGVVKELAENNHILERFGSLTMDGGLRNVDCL

Compound	IC50 [1]	IC50 (TBK1 low ATP kinase assay IC50, in vitro assay 1)
O=C(CC(F)(F)F)N1CCN(Cc2ccnc(Nc3nc4ccc(-c5cc(OCC6(C(F)(F)F)CC6)ncn5)cc4[nH]3)c2)CC1 [Example 158.02, 3,3,3-trifluoro-1-{4-[(2-{[6-(6-{[1-(trifluoromethyl)cyclopropyl]methoxy}pyrimidin-4-yl)-1H-benzimidazol-2-yl]amino}pyridin-4-yl)methyl]piperazin-1-yl}propan-1-one]	21 nM	
CC(c1ccnc(Nc2nc3ccc(-c4ccnn4C)cc3[nH]2)c1)N1CCN(C(=O)CC(F)(F)F)CC1 (single isomer, unassigned) [Example 123.02, 3,3,3-trifluoro-1-{4-[(1R or 1S)-1-(2-{[6-(1-methyl-1H-pyrazol-5-yl)-1H-benzimidazol-2-yl]amino}pyridin-4-yl)ethyl]piperazin-1-yl}propan-1-one]	35 nM	
CN(c1cc(-c2ccc3nc(Nc4cc(CN5CCN(C(=O)C6CC6)CC5)ccn4)[nH]c3c2)ncn1)C1CC1 [Example 157.03, cyclopropyl[4-({2-[(6-{6-[cyclopropyl(methyl)amino]pyrimidin-4-yl}-1H-benzimidazol-2-yl)amino]pyridin-4-yl}methyl)piperazin-1-yl]methanone]	7.6 nM	
CC(C)Nc1cc(-c2ccc3nc(Nc4cc(CN5CCN(C(=O)OC(C)(C)C)CC5)ccn4)[nH]c3c2)ncn1 [Example 154.01, tert-butyl 4-{[2-({6-[6-(propan-2-ylamino)pyrimidin-4-yl]-1H-benzimidazol-2-yl}amino)pyridin-4-yl]methyl}piperazine-1-carboxylate]	4.2 nM	
Cc1cc(-c2ccc3nc(Nc4cc(CN5CCN(C(=O)C6CC6)CC5)ccn4)[nH]c3c2)ccn1 [Example 01.02, cyclopropyl{4-[(2-{[6-(2-methylpyridin-4-yl)-1H-benzimidazol-2-yl]amino}pyridin-4-yl)methyl]piperazin-1-yl}methanone]	42 nM	
Cc1noc(-c2ccc3nc(Nc4cc(C(C)N5CCN(C(=O)CC(F)(F)F)CC5)ccn4)[nH]c3c2)n1 (racemic) [Example 16.05.02, (rac)-3,3,3-trifluoro-1-{4-[1-(2-{[6-(3-methyl-1,2,4-oxadiazol-5-yl)-1H-benzimidazol-2-yl]amino}pyridin-4-yl)ethyl]piperazin-1-yl}propan-1-one]		33 nM
CNc1cc(-c2ccc3nc(Nc4cc(CN5CCN(C(=O)CC(F)(F)F)CC5)ccn4)[nH]c3c2)ncn1 [Example 150.02, 3,3,3-trifluoro-1-(4-{[2-({6-[6-(methylamino)pyrimidin-4-yl]-1H-benzimidazol-2-yl}amino)pyridin-4-yl]methyl}piperazin-1-yl)propan-1-one]	9.6 nM	
O=C(C1CC1)N1CCN(Cc2ccnc(Nc3nc4ccc(-c5ccnc(C(F)F)c5)cc4[nH]3)c2)CC1 [Example 139.03, cyclopropyl(4-{[2-({6-[2-(difluoromethyl)pyridin-4-yl]-1H-benzimidazol-2-yl}amino)pyridin-4-yl]methyl}piperazin-1-yl)methanone]	9.7 nM	
CCn1cc(-c2ccc3nc(Nc4cc(CN5CCN(C(=O)C6CC6)CC5)ccn4)[nH]c3c2)cn1 [Example 38.03, cyclopropyl{4-[(2-{[6-(1-ethyl-1H-pyrazol-4-yl)-1H-benzimidazol-2-yl]amino}pyridin-4-yl)methyl]piperazin-1-yl}methanone]	55.8 nM	
CC(c1ccnc(Nc2nc3ccc(-c4cnn(CC5CC5(F)F)c4)c(F)c3[nH]2)c1)N1CCN(C(=O)OC(C)(C)C)CC1 (single isomer, unassigned) [Example 86.01, tert-butyl 4-[(1R or 1S)-1-(2-{[6-(1-{[(1RS)-2,2-difluorocyclopropyl]methyl}-1H-pyrazol-4-yl)-7-fluoro-1H-benzimidazol-2-yl]amino}pyridin-4-yl)ethyl]piperazine-1-carboxylate]	11 nM	
COCc1cc(-c2ccc3nc(Nc4cc(C(C)N5CCN(C(=O)OC(C)(C)C)CC5)ccn4)[nH]c3c2)ncn1 (single isomer, unassigned) [Example 84.01, tert-butyl 4-{(1R or 1S)-1-[2-({6-[6-(methoxymethyl)pyrimidin-4-yl]-1H-benzimidazol-2-yl}amino)pyridin-4-yl]ethyl}piperazine-1-carboxylate]	1.1 nM	
CC(c1ccnc(Nc2nc3ccc(-c4cnn(CC5CC5(F)F)c4)c(F)c3[nH]2)c1)N1CCN(C(=O)C2CC2)CC1 (single isomer, unassigned) [Example 86.03, cyclopropyl{4-[(1R or 1S)-1-(2-{[6-(1-{[(1RS)-2,2-difluorocyclopropyl]methyl}-1H-pyrazol-4-yl)-7-fluoro-1H-benzimidazol-2-yl]amino}pyridin-4-yl)ethyl]piperazin-1-yl}methanone]	1.5 nM	
Cc1noc(-c2ccc3nc(Nc4cc(CN5CCN(c6ccc(C(F)(F)F)cn6)CC5)ccn4)[nH]c3c2)n1 [Example 101.08, 6-(3-methyl-1,2,4-oxadiazol-5-yl)-N-[4-({4-[5-(trifluoromethyl)pyridin-2-yl]piperazin-1-yl}methyl)pyridin-2-yl]-1H-benzimidazol-2-amine]	> 20000 nM	
Cn1cc(-c2ccc3nc(Nc4cc(CN5CCN(C(=O)CC(F)(F)F)CC5)ccn4)[nH]c3c2)cn1 [Example 37.01, 3,3,3-trifluoro-1-{4-[(2-{[6-(1-methyl-1H-pyrazol-4-yl)-1H-benzimidazol-2-yl]amino}pyridin-4-yl)methyl]piperazin-1-yl}propan-1-one]	55.3 nM	
Cc1noc(-c2ccc3nc(Nc4cc(CN5CCN(c6c(Cl)cncc6Cl)CC5)ccn4)[nH]c3c2)n1 [Example 101.23, N-(4-{[4-(3,5-dichloropyridin-4-yl)piperazin-1-yl]methyl}pyridin-2-yl)-6-(3-methyl-1,2,4-oxadiazol-5-yl)-1H-benzimidazol-2-amine]	280 nM	
COc1nccc(-c2ccc3nc(Nc4cc(CN5CCN(C(=O)OC(C)(C)C)CC5)ccn4)[nH]c3c2)n1 [Example 25.01.01, tert-butyl 4-[(2-{[6-(2-methoxypyrimidin-4-yl)-1H-benzimidazol-2-yl]amino}pyridin-4-yl)methyl]piperazine-1-carboxylate]	174 nM	
O=C(C1CCC1)N1CCN(Cc2ccnc(Nc3nc4ccc(-c5ccn(CC6CC6)c(=O)c5)cc4[nH]3)c2)CC1 [Example 44.03, 4-{2-[(4-{[4-(cyclobutylcarbonyl)piperazin-1-yl]methyl}pyridin-2-yl)amino]-1H-benzimidazol-6-yl}-1-(cyclopropylmethyl)pyridin-2(1H)-one]	85.8 nM	
O=C(CC(F)(F)F)N1CCN(Cc2ccnc(Nc3nc4ccc(-c5ncnc(NC6CCC6)c5F)cc4[nH]3)c2)CC1 [Example 194.02, 1-(4-{[2-({6-[6-(cyclobutylamino)-5-fluoropyrimidin-4-yl]-1H-benzimidazol-2-yl}amino)pyridin-4-yl]methyl}piperazin-1-yl)-3,3,3-trifluoropropan-1-one]	45.9 nM	
CC(C)(C)OC(=O)N1CCN(Cc2ccnc(Nc3nc4ccc(-c5ccnc(F)c5)cc4[nH]3)c2)CC1 [Example 137.01, tert-butyl 4-[(2-{[6-(2-fluoropyridin-4-yl)-1H-benzimidazol-2-yl]amino}pyridin-4-yl)methyl]piperazine-1-carboxylate]	13 nM	
Cc1nnc(-c2ccc3nc(Nc4cc(CN5CCN(C(=O)OC(C)(C)C)CC5)ccn4)[nH]c3c2)o1 [Example 66.01.01, tert-butyl 4-[(2-{[6-(5-methyl-1,3,4-oxadiazol-2-yl)-1H-benzimidazol-2-yl]amino}pyridin-4-yl)methyl]piperazine-1-carboxylate]	33.3 nM	
CC(C)Oc1cnccc1-c1ccc2nc(Nc3cc(CN4CCN(C(=O)CC(F)(F)F)CC4)ccn3)[nH]c2c1 [Example 06.01, 3,3,3-trifluoro-1-(4-{[2-({6-[3-(propan-2-yloxy)pyridin-4-yl]-1H-benzimidazol-2-yl}amino)pyridin-4-yl]methyl}piperazin-1-yl)propan-1-one]	4.31 nM	
COc1cncnc1-c1ccc2nc(Nc3cc(CN4CCN(C(=O)N5CCCC5)CC4)ccn3)[nH]c2c1 [Example 35.01.05, {4-[(2-{[6-(5-methoxypyrimidin-4-yl)-1H-benzimidazol-2-yl]amino}pyridin-4-yl)methyl]piperazin-1-yl}(pyrrolidin-1-yl)methanone]	48 nM	
CC(=O)N1CCN(Cc2ccnc(Nc3nc4ccc(-c5ncnc(C)c5C)cc4[nH]3)c2)CC1 [Example 32.03, 1-{4-[(2-{[6-(5,6-dimethylpyrimidin-4-yl)-1H-benzimidazol-2-yl]amino}pyridin-4-yl)methyl]piperazin-1-yl}ethanone]	5190 nM	
O=C(C1CC1)N1CCN(Cc2ccnc(Nc3nc4ccc(-c5ccsc5Cl)cc4[nH]3)c2)CC1 [Example 175.03, {4-[(2-{[6-(2-chlorothiophen-3-yl)-1H-benzimidazol-2-yl]amino}pyridin-4-yl)methyl]piperazin-1-yl}(cyclopropyl)methanone]	223 nM	
CC(c1ccnc(Nc2nc3ccc(-c4cc(N5CCCC5)ncn4)cc3[nH]2)c1)N1CCN(C(=O)OC(C)(C)C)CC1 (single isomer, unassigned) [Example 117.01, tert-butyl 4-{(1R or 1S)-1-[2-({6-[6-(pyrrolidin-1-yl)pyrimidin-4-yl]-1H-benzimidazol-2-yl}amino)pyridin-4-yl]ethyl}piperazine-1-carboxylate]	2 nM	
COc1cccnc1N1CCN(Cc2ccnc(Nc3nc4ccc(-c5nc(C)no5)cc4[nH]3)c2)CC1 [Example 101.17, N-(4-{[4-(3-methoxypyridin-2-yl)piperazin-1-yl]methyl}pyridin-2-yl)-6-(3-methyl-1,2,4-oxadiazol-5-yl)-1H-benzimidazol-2-amine]	150 nM	
O=C(CC1CC1)N1CCN(Cc2ccnc(Nc3nc4ccc(-c5nc(C6CC6)no5)cc4[nH]3)c2)CC1 [Example 17.03, 2-cyclopropyl-1-{4-[(2-{[6-(3-cyclopropyl-1,2,4-oxadiazol-5-yl)-1H-benzimidazol-2-yl]amino}pyridin-4-yl)methyl]piperazin-1-yl}ethanone]	56.5 nM	
